Data on five molecules can be found in patent publication EP4810052A2, “HCRHR2 SELECTIVE POLYPEPTIDES” (Gubra A/S, priority 2023, dated 2026).

One experiment has as its target T1, hCRHR2 (Homo sapiens, UniProt Q13324).
T1 sequence (Q13324 1-411): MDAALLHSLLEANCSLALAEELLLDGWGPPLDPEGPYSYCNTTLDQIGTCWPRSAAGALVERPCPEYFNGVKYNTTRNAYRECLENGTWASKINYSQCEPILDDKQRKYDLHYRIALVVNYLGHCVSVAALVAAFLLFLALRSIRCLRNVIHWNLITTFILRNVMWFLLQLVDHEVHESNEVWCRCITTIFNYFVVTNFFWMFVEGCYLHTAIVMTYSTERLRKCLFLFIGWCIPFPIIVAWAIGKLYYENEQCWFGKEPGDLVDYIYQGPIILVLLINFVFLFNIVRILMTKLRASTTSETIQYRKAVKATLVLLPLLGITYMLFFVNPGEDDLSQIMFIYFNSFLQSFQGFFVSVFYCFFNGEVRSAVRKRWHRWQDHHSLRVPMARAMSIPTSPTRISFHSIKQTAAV
The experiment can be described thus: HTRF cAMP assay, determination of hCRHR2 potency (peptide libraries 5 conc., purified peptides 11 conc.). Type of experiment: cell-based. The method in brief:
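Potency was read as cAMP accumulation in a stable CHO-K1 line expressing human CRHR2, used in suspension right after thawing. Detection relied on energy transfer from antibody-bound cryptate to d2-cAMP.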
On the technique in general: In TR-FRET formats the signal depends on donor and acceptor labels being close together.

In a further experiment the target is T2, hCRHR1 (Homo sapiens, UniProt P34998).
T2 sequence (P34998 24-415): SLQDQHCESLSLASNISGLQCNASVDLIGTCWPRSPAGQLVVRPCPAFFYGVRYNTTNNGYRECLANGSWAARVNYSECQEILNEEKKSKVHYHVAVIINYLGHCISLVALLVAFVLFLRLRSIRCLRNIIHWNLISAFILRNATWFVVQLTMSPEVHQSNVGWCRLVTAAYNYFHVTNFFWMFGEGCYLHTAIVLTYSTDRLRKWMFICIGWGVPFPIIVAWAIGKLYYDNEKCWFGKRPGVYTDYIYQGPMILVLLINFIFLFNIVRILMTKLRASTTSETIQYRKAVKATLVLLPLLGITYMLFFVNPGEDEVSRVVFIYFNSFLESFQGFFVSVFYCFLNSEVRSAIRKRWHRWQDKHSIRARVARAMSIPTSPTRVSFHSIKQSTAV
The experiment can be described thus: HTRF cAMP assay, determination of hCRHR1 potency (peptide libraries 5 conc., purified peptides 11 conc.). The format is cell-based. The procedure, abridged:
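CHO-K1 cells stably expressing human CRHR1, thawed from frozen stocks just before use, were stimulated in suspension with agonist peptides. cAMP was measured by HTRF competitive immunoassay (cryptate anti-cAMP antibody vs d2-cAMP).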

Where [1] appears, read: library peptides, matched molecular pairs L vs Nle in position X^38, read-out: Potency hCRHR2 pEC50 (converted).
The mark [2] stands for this setting: library peptides, matched molecular pairs L vs Nle in position X^38, read-out: Potency hCRHR1 pEC50 (converted).
[3] abbreviates: Table 3, matched molecular pairs X^38 L vs Nle, peptide library of Example 4, read-out: hCRHR2 pEC50 (converted).
The mark [4] stands for this setting: Table 3, matched molecular pairs X^38 L vs Nle, peptide library of Example 4, read-out: hCRHR1 pEC50 (converted).

Read-outs that look alike come from different tables or passages of the source. Starred links: 1 amine or outer side, 2 acyl side, 3 side chain; linkers in the order of their positions; H or OH if unused. Non-standard residues stand in square brackets, D forms with d. Residues, ends and D or L forms follow the SMILES beside them. Groups on a side chain read outwards from the residue. *: point of attachment. C20 diacid = O=C(O)CCCCCCCCCCCCCCCCCCC(=O)*; γGlu = O=C(O)[C@H](CCC(=O)[*:2])N[*:1]; Hyp = O=C(O)[C@@H]1C[C@@H](O)CN1; Nle = CCCC[C@H](N)C(=O)O; AEEA = NCCOCCOCC(=O)O

For the molecule `CC[C@H](C)[C@H](N)C(=O)N[C@H](C(=O)N[C@@H](CC(C)C)C(=O)N[C@@H](CO)C(=O)N[C@@H](CC(C)C)C(=O)N[C@@H](CC(=O)O)C(=O)N[C@H](C(=O)N1C[C@H](O)C[C@H]1C(=O)N[C@H](C(=O)NCC(=O)N[C@@H](CC(C)C)C(=O)N[C@@H](CC(C)C)C(=O)N[C@@H](CCC(N)=O)C(=O)N[C@H](C(=O)N[C@@H](CC(C)C)C(=O)N[C@@H](CC(C)C)C(=O)N[C@@H](CCC(=O)O)C(=O)N[C@@H](CCC(N)=O)C(=O)N[C@@H](C)C(=O)N[C@@H](CCCNC(=N)N)C(=O)N[C@@H](C)C(=O)N[C@@H](CCCNC(=N)N)C(=O)N[C@H](C(=O)N[C@@H](C)C(=O)N[C@@H](CCCNC(=N)N)C(=O)N[C@@H](CCC(=O)O)C(=O)N[C@@H](CCC(N)=O)C(=O)N[C@@H](C)C(=O)N[C@@H](CCCCNC(=O)COCCOCCNC(=O)COCCOCCNC(=O)CC[C@H](NC(=O)CC[C@H](NC(=O)CCCCCCCCCCCCCCCCCCC(=O)O)C(=O)O)C(=O)O)C(=O)N[C@H](C(=O)N[C@@H](CC(N)=O)C(=O)N[C@@H](C)C(=O)N[C@@H](CCC(=O)O)C(=O)N[C@H](C(=O)N[C@@H](CC(C)C)C(=O)N[C@@H](C)C(=O)N[C@@H](CCC(=O)O)C(=O)N[C@H](C(N)=O)C(C)C)[C@@H](C)CC)[C@@H](C)O)C(C)C)[C@@H](C)CC)[C@@H](C)CC)C(C)C)C(C)C` [compound 84] (H-IVLSLDV[Hyp]IGLLQILLEQARARVAREQAK([AEEA-AEEA-γGlu-γGlu-C20 diacid])TNAEILAEV-NH2), the EC50 at hCRHR2 (setting [1]) was 1 nM; on hCRHR1 (setting [2]) it was 25.1 nM.
In the case of `CCCC[C@H](NC(=O)[C@@H](NC(=O)[C@H](CCC(=O)O)NC(=O)[C@H](C)NC(=O)[C@H](CC(N)=O)NC(=O)[C@@H](NC(=O)[C@H](CCCCNC(=O)COCCOCCNC(=O)COCCOCCNC(=O)CC[C@H](NC(=O)CC[C@H](NC(=O)CCCCCCCCCCCCCCCCCCC(=O)O)C(=O)O)C(=O)O)NC(=O)[C@H](C)NC(=O)[C@H](CCC(N)=O)NC(=O)[C@H](CCC(=O)O)NC(=O)[C@H](CCCNC(=N)N)NC(=O)[C@H](C)NC(=O)[C@H](CO)NC(=O)[C@H](CCC(=O)O)NC(=O)[C@H](C)NC(=O)[C@H](CCCNC(=N)N)NC(=O)[C@H](C)NC(=O)[C@H](CCC(N)=O)NC(=O)[C@H](CCC(=O)O)NC(=O)[C@H](CC(C)C)NC(=O)[C@H](CC(C)C)NC(=O)[C@@H](NC(=O)[C@H](CCC(N)=O)NC(=O)[C@H](CC(C)C)NC(=O)[C@H](CC(C)C)NC(=O)CNC(=O)[C@@H](NC(=O)[C@@H]1CCCN1C(=O)[C@@H](NC(=O)[C@H](CC(=O)O)NC(=O)[C@H](CC(C)C)NC(=O)[C@H](CO)NC(=O)[C@H](CC(C)C)NC(=O)[C@@H](NC(=O)[C@@H](N)[C@@H](C)CC)C(C)C)C(C)C)[C@@H](C)CC)[C@@H](C)CC)[C@@H](C)O)[C@@H](C)CC)C(=O)N[C@@H](C)C(=O)N[C@@H](CCC(=O)O)C(=O)N[C@H](C(N)=O)C(C)C` [SEQ ID NO: 42] (H-IVLSLDVPIGLLQILLEQARAESAREQAK([AEEA-AEEA-γGlu-γGlu-C20 diacid])TNAEI[Nle]AEV-NH2), the values for the EC50 on hCRHR2 (setting [3]) and on hCRHR1 (setting [4]) were 0.2 nM and 251 nM, respectively.
Taken in the same sequence, the figures for `CC[C@H](C)[C@H](N)C(=O)N[C@H](C(=O)N[C@@H](CC(C)C)C(=O)N[C@@H](CO)C(=O)N[C@@H](CC(C)C)C(=O)N[C@@H](CC(=O)O)C(=O)N[C@H](C(=O)N1CCC[C@H]1C(=O)N[C@H](C(=O)NCC(=O)N[C@@H](CC(C)C)C(=O)N[C@@H](CC(C)C)C(=O)N[C@@H](CCC(N)=O)C(=O)N[C@H](C(=O)N[C@@H](CC(C)C)C(=O)N[C@@H](CC(C)C)C(=O)N[C@@H](CCC(=O)O)C(=O)N[C@@H](CCC(N)=O)C(=O)N[C@@H](C)C(=O)N[C@@H](CCCNC(=N)N)C(=O)N[C@@H](C)C(=O)N[C@@H](CCC(=O)O)C(=O)N[C@@H](CO)C(=O)N[C@@H](C)C(=O)N[C@@H](CCCNC(=N)N)C(=O)N[C@@H](CCC(=O)O)C(=O)N[C@@H](CCC(N)=O)C(=O)N[C@@H](C)C(=O)N[C@@H](CCCCNC(=O)COCCOCCNC(=O)COCCOCCNC(=O)CC[C@H](NC(=O)CC[C@H](NC(=O)CCCCCCCCCCCCCCCCCCC(=O)O)C(=O)O)C(=O)O)C(=O)N[C@H](C(=O)N[C@@H](CC(N)=O)C(=O)N[C@@H](C)C(=O)N[C@@H](CCC(=O)O)C(=O)N[C@H](C(=O)N[C@@H](CC(C)C)C(=O)N[C@@H](C)C(=O)N[C@@H](CCC(=O)O)C(=O)N[C@H](C(N)=O)C(C)C)[C@@H](C)CC)[C@@H](C)O)[C@@H](C)CC)[C@@H](C)CC)C(C)C)C(C)C` [SEQ ID NO: 41] (H-IVLSLDVPIGLLQILLEQARAESAREQAK([AEEA-AEEA-γGlu-γGlu-C20 diacid])TNAEILAEV-NH2) were 0.631 nM and 15800 nM.
In the case of `CCCC[C@H](NC(=O)[C@@H](NC(=O)[C@H](CCC(=O)O)NC(=O)[C@H](C)NC(=O)[C@H](CC(N)=O)NC(=O)[C@@H](NC(=O)[C@H](CCCCNC(=O)COCCOCCNC(=O)COCCOCCNC(=O)CC[C@H](NC(=O)CC[C@H](NC(=O)CCCCCCCCCCCCCCCCCCC(=O)O)C(=O)O)C(=O)O)NC(=O)[C@H](C)NC(=O)[C@H](CCC(N)=O)NC(=O)[C@H](CCC(N)=O)NC(=O)[C@H](CCCNC(=N)N)NC(=O)[C@H](C)NC(=O)[C@H](C)NC(=O)[C@H](CCC(N)=O)NC(=O)[C@H](C)NC(=O)[C@H](CCCNC(=N)N)NC(=O)[C@H](C)NC(=O)[C@H](CCC(N)=O)NC(=O)[C@H](CCC(=O)O)NC(=O)[C@H](CC(C)C)NC(=O)[C@H](CC(C)C)NC(=O)[C@@H](NC(=O)[C@H](CCC(N)=O)NC(=O)[C@H](CC(C)C)NC(=O)[C@H](CC(C)C)NC(=O)CNC(=O)[C@@H](NC(=O)[C@@H]1CCCN1C(=O)[C@@H](NC(=O)[C@H](CC(=O)O)NC(=O)[C@H](CC(C)C)NC(=O)[C@H](CO)NC(=O)[C@H](CC(C)C)NC(=O)[C@@H](NC(=O)[C@@H](N)[C@@H](C)CC)C(C)C)C(C)C)[C@@H](C)CC)[C@@H](C)CC)[C@@H](C)O)[C@@H](C)CC)C(=O)N[C@@H](C)C(=O)N[C@@H](CCC(=O)O)C(=O)N[C@H](C(N)=O)C(C)C` [compound 55] (H-IVLSLDVPIGLLQILLEQARAQAARQQAK([AEEA-AEEA-γGlu-γGlu-C20 diacid])TNAEI[Nle]AEV-NH2), the figures for the EC50 on hCRHR2 (setting [1]) and on hCRHR1 (setting [2]) were 0.126 nM and 251 nM, respectively.
As to `CC[C@H](C)[C@H](N)C(=O)N[C@H](C(=O)N[C@@H](CC(C)C)C(=O)N[C@@H](CO)C(=O)N[C@@H](CC(C)C)C(=O)N[C@@H](CC(=O)O)C(=O)N[C@H](C(=O)N1CCC[C@H]1C(=O)N[C@H](C(=O)NCC(=O)N[C@@H](CC(C)C)C(=O)N[C@@H](CC(C)C)C(=O)N[C@@H](CCC(N)=O)C(=O)N[C@H](C(=O)N[C@@H](CC(C)C)C(=O)N[C@@H](CC(C)C)C(=O)N[C@@H](CCC(=O)O)C(=O)N[C@@H](CCC(N)=O)C(=O)N[C@@H](C)C(=O)N[C@@H](CCCNC(=N)N)C(=O)N[C@@H](C)C(=O)N[C@@H](CCCNC(=N)N)C(=O)N[C@@H](C)C(=O)N[C@@H](CC(C)C)C(=O)N[C@@H](CCCNC(=N)N)C(=O)N[C@@H](CCC(N)=O)C(=O)N[C@@H](CCC(=O)O)C(=O)N[C@@H](C)C(=O)N[C@@H](CCCCNC(=O)COCCOCCNC(=O)COCCOCCNC(=O)CC[C@H](NC(=O)CC[C@H](NC(=O)CCCCCCCCCCCCCCCCCCC(=O)O)C(=O)O)C(=O)O)C(=O)N[C@H](C(=O)N[C@@H](CC(N)=O)C(=O)N[C@@H](C)C(=O)N[C@@H](CCC(=O)O)C(=O)N[C@H](C(=O)N[C@@H](CC(C)C)C(=O)N[C@@H](C)C(=O)N[C@@H](CCC(=O)O)C(=O)N[C@H](C(N)=O)C(C)C)[C@@H](C)CC)[C@@H](C)O)[C@@H](C)CC)[C@@H](C)CC)C(C)C)C(C)C` [SEQ ID NO: 37] (H-IVLSLDVPIGLLQILLEQARARALRQEAK([AEEA-AEEA-γGlu-γGlu-C20 diacid])TNAEILAEV-NH2), the EC50 was 3.16 nM on hCRHR2 (setting [3]) and 158000 nM at hCRHR1 (setting [4]).
